ChEMBL document CHEMBL4368857, “New amyloid beta-disaggregating agents: synthesis, pharmacological evaluation, crystal structure and molecular docking of N-(4-((7-chloroquinolin-4-yl)oxy)-3-ethoxybenzyl)amines” (Medchemcomm, 2018)
The source made the active and inactive calls. The calls are words filed in the database; no cut-off is given here.

How the values were obtained:
[1] = Metal chelating activity assessed as Fe2+-compound complex formation by measuring shift in maximum absorption wavelength at 30 uM after 30 mins by UV-Vis spectroscopic method
[2] = target: T1, Amyloid-beta precursor protein (Homo sapiens, UniProt P05067); assay: Inhibition of HFIP-pretreated amyloid beta (1 to 42) (unknown origin) self-induced aggregation at 75 uM after 48 hrs by thioflavin T-based fluorometric assay relative to control
T1 sequence (P05067 whole entry): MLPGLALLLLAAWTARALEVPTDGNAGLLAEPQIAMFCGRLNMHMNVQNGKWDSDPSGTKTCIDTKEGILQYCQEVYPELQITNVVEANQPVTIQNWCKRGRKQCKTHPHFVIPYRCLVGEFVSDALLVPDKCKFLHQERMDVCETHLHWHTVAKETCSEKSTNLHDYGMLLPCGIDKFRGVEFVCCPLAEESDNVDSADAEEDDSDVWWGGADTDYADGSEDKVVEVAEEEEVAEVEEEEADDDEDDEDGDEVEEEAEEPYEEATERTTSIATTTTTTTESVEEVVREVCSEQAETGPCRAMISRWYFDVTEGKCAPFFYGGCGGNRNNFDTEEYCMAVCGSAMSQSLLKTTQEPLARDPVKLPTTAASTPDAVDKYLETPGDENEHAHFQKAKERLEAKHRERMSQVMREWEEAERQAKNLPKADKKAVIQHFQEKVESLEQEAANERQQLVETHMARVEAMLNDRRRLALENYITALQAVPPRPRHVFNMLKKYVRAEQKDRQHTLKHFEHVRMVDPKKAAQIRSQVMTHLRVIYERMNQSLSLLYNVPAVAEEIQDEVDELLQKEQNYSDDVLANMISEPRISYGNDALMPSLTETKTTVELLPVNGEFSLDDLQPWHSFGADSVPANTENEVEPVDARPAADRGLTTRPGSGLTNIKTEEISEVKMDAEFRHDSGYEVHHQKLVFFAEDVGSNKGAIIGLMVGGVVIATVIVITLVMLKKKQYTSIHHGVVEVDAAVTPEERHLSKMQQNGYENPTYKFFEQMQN

[3] = target: T1, Amyloid-beta precursor protein; assay: Inhibition of HFIP-pretreated amyloid beta (1 to 42) (unknown origin) self-induced aggregation after 48 hrs by thioflavin T-based fluorometric assay
[4] = target: Acetylcholinesterase (Electrophorus electricus) (UniProt O42275); assay: Potency index, ratio of donepezil effect to test compound effect for inhibition of electric eel AChE-induced amyloid beta (1 to 42) aggregation
Acetylcholinesterase (Electrophorus electricus), sequence (O42275 24-633 limits assumed): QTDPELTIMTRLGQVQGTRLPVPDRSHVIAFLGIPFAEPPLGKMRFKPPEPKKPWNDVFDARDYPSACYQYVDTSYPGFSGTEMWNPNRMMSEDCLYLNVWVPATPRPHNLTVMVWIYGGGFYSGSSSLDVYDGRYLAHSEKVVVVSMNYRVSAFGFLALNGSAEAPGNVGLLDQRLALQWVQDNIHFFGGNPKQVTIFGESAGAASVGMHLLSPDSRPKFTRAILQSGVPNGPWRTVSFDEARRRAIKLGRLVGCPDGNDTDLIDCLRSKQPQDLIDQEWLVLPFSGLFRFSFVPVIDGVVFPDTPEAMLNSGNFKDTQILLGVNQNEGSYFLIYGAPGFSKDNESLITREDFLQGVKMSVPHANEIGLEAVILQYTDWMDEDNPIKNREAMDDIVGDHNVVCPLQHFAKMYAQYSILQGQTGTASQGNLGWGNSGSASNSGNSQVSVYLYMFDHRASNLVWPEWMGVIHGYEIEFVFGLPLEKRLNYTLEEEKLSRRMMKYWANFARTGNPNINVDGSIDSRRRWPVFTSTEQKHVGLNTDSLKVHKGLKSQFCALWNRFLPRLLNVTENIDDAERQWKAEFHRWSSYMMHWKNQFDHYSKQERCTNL

[5] = Metal chelating activity assessed as Zn2+-compound complex formation at 30 uM after 30 mins by UV-Vis spectroscopic method
[6] = target: T1, Amyloid-beta precursor protein; assay: Inhibition of HFIP-pretreated amyloid beta (1 to 42) (unknown origin) self-induced aggregation at 50 uM after 48 hrs by thioflavin T-based fluorometric assay relative to control
[7] = Inhibition of Cu2+-induced amyloid beta (1 to 42 residues) (unknown origin) aggregation at 50 uM after 24 hrs by thioflavin T-based fluorometric assay relative to control
[8] = Metal chelating activity assessed as Cu2+-compound complex formation by measuring shift in maximum absorption wavelength at 30 uM after 30 mins by UV-Vis spectroscopic method
[9] = Metal chelating activity assessed as Al3+-compound complex formation at 30 uM after 30 mins by UV-Vis spectroscopic method
[10] = target: T1, Amyloid-beta precursor protein; assay: Disaggregation of self-induced amyloid beta (1 to 42) (unknown origin) assessed as appearance of sparse fibrils at 50 uM after 48 hrs by transmission electron microscopic analysis
[11] = target: T1, Amyloid-beta precursor protein; assay: Inhibition of HFIP-pretreated amyloid beta (1 to 42) (unknown origin) self-induced aggregation at 25 uM after 48 hrs by thioflavin T-based fluorometric assay relative to control
[12] = Metal chelating activity assessed as stoichiometric ratio of Cu2+-compound complex at 30 uM after 30 mins by Job plot analysis
[13] = Antioxidant activity assessed as trolox equivalent of AAPH-induced radical scavenging activity at 1 to 8 uM pretreated for 15 mins followed by AAPH addition measured at 1 min interval for 80 mins by ORAC-FL assay; format: functional
[14] = Metal chelating activity assessed as Zn2+-compound complex formation by measuring shift in maximum absorption wavelength at 30 uM after 30 mins by UV-Vis spectroscopic method
[15] = Metal chelating activity assessed as Al3+-compound complex formation by measuring shift in maximum absorption wavelength at 30 uM after 30 mins by UV-Vis spectroscopic method

CCOc1cc(CNc2ccccc2)ccc1Oc1ccnc2cc(Cl)ccc12
Activity [1]: 305 nm | inhibition [2]: 3.37% | IC50 [3]: 44.5 µM | Ratio [4]: > 2 | Activity [5]: Active | inhibition [6]: 53.6% | inhibition [7]: 22.4% | Activity [8]: 305 nm | Activity [9]: Active | Activity [10]: Active | inhibition [11]: 37.1% | Ratio [12]: 0.5 | Activity (umolequiv/umol) [13]: 2.72

CCOc1cc(CNc2ccc(F)cc2F)ccc1Oc1ccnc2cc(Cl)ccc12
inhibition [6]: 27.8% | Activity (umolequiv/umol) [13]: 2.37

CCOc1cc(CNc2ccc(OC)cc2)ccc1Oc1ccnc2cc(Cl)ccc12
Activity [14]: 304 nm | Activity [1]: 305 nm | inhibition [2]: 6.89% | IC50 [3]: 46.4 µM | Ratio [4]: > 2 | Activity [15]: 304 nm | inhibition [6]: 53.7% | inhibition [7]: 32.7% | Activity [8]: 304 nm | Activity [10]: Active | inhibition [11]: 26.7% | Ratio [12]: 0.8 | Activity (umolequiv/umol) [13]: 1.95

CCOc1cc(CNc2ccccn2)ccc1Oc1ccnc2cc(Cl)ccc12
inhibition [6]: 41.5% | Activity (umolequiv/umol) [13]: 0.55

CCOc1cc(CNc2ccc(C)cc2)ccc1Oc1ccnc2cc(Cl)ccc12
inhibition [6]: 46.8% | Activity (umolequiv/umol) [13]: 2.28

CCOc1cc(CNc2cccc(C)n2)ccc1Oc1ccnc2cc(Cl)ccc12
inhibition [6]: 41.6% | Activity (umolequiv/umol) [13]: 0.87

CCOc1cc(CNc2cccc(C(F)(F)F)c2)ccc1Oc1ccnc2cc(Cl)ccc12
inhibition [6]: 30% | Activity (umolequiv/umol) [13]: 1.56

COc1cc(/C=C/C(=O)CC(=O)/C=C/c2ccc(O)c(OC)c2)ccc1O
inhibition [7]: 52.9%
